# From ChEMBL document CHEMBL4732046, “A red-light-activated sulfonamide porphycene for highly efficient photodynamic therapy against hypoxic tumor” (Eur J Med Chem, 2021)
# Active and inactive are the calls of the source. The calls are words filed in the database; no cut-off is given here.
# Key:
# [1] = system: A-375; test: Induction of apoptosis in human A-375 cells assessed as apoptotic cells at 300 nM […] irradiated with 640 +/- 15 nm red LED for 1 hrs after 24 hrs by Annexin V-FITC/propidium iodide staining based flow cytometric analysis relative to control; format: functional, cell-based
# [2] = system: B16; test: Induction of apoptosis in mouse B16 cells assessed as apoptotic cells at 200 nM irradiated with 640 +/- 15 nm red LED for 1 hrs after 24 hrs by Annexin V-FITC/propidium iodide staining based flow cytometric analysis relative to control; format: functional, cell-based
# [3] = system: B16; test: Induction of apoptosis in mouse B16 cells assessed as increase in cleaved caspase 3 level at 200 to 400 nM irradiated with 640 +/- 15 nm red LED for 1 hrs measured after 24 hrs by Western blot analysis; format: functional, cell-based; settings: dose 200-400 nM
# [4] = system: A-375; test: Antitumor activity against human A-375 cells xenografted in BALB/c mouse assessed as tumor growth inhibition at 50 uM, IT once every 2 days for 2 weeks followed every dosing irradiated with 640 +/- 15 nm red LED for 4 hrs; format: functional, cell-based
# [5] = system: A-375; test: Antitumor activity against human A-375 cells xenografted in BALB/c mouse assessed as reduction in tumor volume at 50 uM, IT once every 2 days for 2 weeks followed every dosing irradiated with 640 +/- 15 nm red LED for 4 hrs; format: functional, cell-based
# [6] = system: A-375; test: Induction of morphological changes in human A-375 cells assessed as nuclear shrinkage at 100 to 300 nM incubated for 24 hrs by Hoechst 33258 staining based assay; format: functional, cell-based; settings: dose 100-300 nM
# [7] = system: B16; test: Induction of morphological changes in mouse B16 cells assessed as nuclear shrinkage at 200 to 400 nM incubated for 24 hrs by Hoechst 33258 staining based assay; format: functional, cell-based; settings: dose 200-400 nM
# [8] = Drug uptake in human A-375 cells lysosome after 24 hrs by Lyso-Tracker Red dye based confocal microscopic method; format: ADME, subcellular; settings: a-375, 24 h
# [9] = system: B16; test: Antiproliferative activity against mouse B16 cells assessed as inhibition of cell proliferation irradiated with 640 +/- 15 nm red LED for 4 hrs in presence of 30 uM L-histidine measured after 24 hrs under hypoxic condition by MTT assay; format: functional, cell-based
# [10] = system: B16; test: Induction of apoptosis in mouse B16 cells assessed as decrease in Bid level at 200 to 400 nM irradiated with 640 +/- 15 nm red LED for 1 hrs measured after 24 hrs by Western blot analysis; format: functional, cell-based; settings: dose 200-400 nM
# [11] = system: A-375; test: Induction of intracellular reactive oxygen species production in human A-375 cells assessed as […] membrane damage at 200 nM irradiated with 640 +/- 15 nm red LED for 1 hr measured after 4 hrs by mito-tracker green based confocal microscopic method; format: functional, cell-based
# [12] = Toxicity in C57BL/6 mouse assessed as effect on alanine aminotransferase level measured after 2 days; settings: in vivo, 48 h, time 2 day
# [13] = system: B16; test: Photocytotoxicity against mouse B16 cells assessed as reduction in cell viability irradiated with 640 +/- 15 nm red LED for 4 hrs measured after 24 hrs by MTT assay; format: functional, cell-based; settings: B16, light or radiation study
smiles,measurement,setting,value
CC(C)(C)C1=Cc2nc1ccc1[nH]c(cc1S(=O)(=O)NCCOCCO)c1nc(ccc3[nH]c2cc3C(C)(C)C)C(C(C)(C)C)=C1,Activity,[1],Active
same,Activity,[2],Active
same,Activity,[3],Active
same,Activity,[4],Active
same,Activity,[5],Active
same,Activity,[6],Active
same,Activity,[7],Active
same,Drug uptake,[8],Active
same,Activity,[9],Active
same,Activity,[10],Active
same,Activity,[11],Active
same,Activity,[12],Toxic
same,DC50,[13],323 nM
